According to US20210163443A1, “Febrifugine Derivatives” (BRISTOL-MYERS SQUIBB COMPANY, priority 2019, published 2021):
Structures can show the parent of a compound that is named as a salt. Where two headings read alike, the source gives them in different places.

Columns and labels:
Rat hepatocytes = experiment: GSH trapping assay in rat hepatocytes; format: in vitro ADME; details: 30 μM, 24 hr incubation, LC-MS
Method: Rat hepatocytes were isolated from male Sprague-Dawley rats (Vivo Biotech Ltd, HYD, India), weighing 230 to 280 g by the two step collagenase perfusion method (seglen, 1976; Berry M N and Friend D S.1969). Rat hepatocytes were cultured in Dulbecco's Modified Eagle's Medium (DMEM, Gibco®, USA) supplemented with 10^−6 M dexamethasone (Gibco®), 5% fetal bovine serum (Gibco®) and cocktail-A mix (CM3000, Gibco®) containing HEPES buffer (PH 7.4), GlutaMAX™, human recombinant insulin, penicillin and streptomycin. Initial cell viability assessed by Trypanblue stain 0.4% (Sigma, UK) and viability more than 80% were considered for culturing. Hepatocytes were seeded in 96 well type-I collagen coated plates (Gibco®) at 4×10^4 cells/well in 100 μL of the culture medium and incubated at 37° C. in 5% CO2 and 95% relative humidity (RH) for 4 hr of cell attachment.
After 4 hr incubation, rat hepatocytes were washed twice with pre-warmed (37° C.) DMEM incubation medium supplemented with 10^−7 M dexamethasone and cell maintenance cocktail-B (CM4000, Gibco®) solution to remove unattached cells. Post washing hepatocytes were treated with test and reference compounds in incubation medium at single concentration (30 μM) in duplicate and incubate further for 24 hr at 37° C. with 5% CO2 and 95% RH. The final concentration of DMSO in medium was 0.5%.
Post 24 hr incubation, hepatocyte samples were quenched with equal volumes of acetonitrile containing 0.1% formic acid followed by vortex mix, sonicate and centrifuge at 12000 rpm at room temperature for 5 min. Supernatant samples were analyzed for GSH adducts on a C18 reverse-phase column (Xbridge™ Shield, C18, 4.6×150 mm, 3.5 μm) with solvent A (10 mM ammonium formate and 0.1% formic acid/water) and solvent B (0.1% formic acid/acetonitrile).
The column was eluted with 5% B for 5 min and then with a linear gradient to 20% B over 10 min and it was maintained up to 15 min, then it was increased linearly to 40% B up to 27 min and then increase to 90% B up to 29 min, and then equilibrate back the column to 5% B up to 33 min at a flow rate of 0.6 ml/min. The column effluent was directed into the ESI source of a LTQ Velos Orbitrap mass spectrometer (Thermo Fisher Scientific, San Jose, Calif.). The ESI conditions were as follows: sheath gas flow rate, 40 arbitrary units; auxiliary gas, 30 arbitrary units; spray voltage, 4.5 kV; capillary temperature, 230° C.; capillary voltage, 30 V; and tube lens offset, 25 V. Data were acquired in positive ion mode using Xcalibur software (Thermo Fisher Scientific) with one full scan followed by two data-dependent scans of the most intense and the second most intense ions. During the data interpretation the characteristic fragments of neutral loss of glycine (75.0320 Da), pyroglutamic acid (129.0426 Da) and loss of neutral moiety GSH (307.0838 Da) and/or a specific fragment of (GSH+H)^+ (m/z 308.0911) were monitored. Finally the fragments ions with m/z e.g. 179.0485, 177.0328 and 162.0219 Da, which were derived from the glutathione moiety were used to report GSH positive results.

[1] = target: T1, human ProRS (prolyl tRNA synthetase moiety of glutamyl prolyl tRNA synthetase, EPRS) (Homo sapiens, UniProt P07814); experiment: Assay for inhibitors of prolyl tRNA synthetase activity (ProRS assay, labeled proline incorporation); format: biochemical
T1 construct: The prolyl tRNA synthetase moiety (ProRS) in the cDNA of glutamyl prolyl tRNA synthetase was subcloned; 6xHis (N, cleaved yes); made in house; host or cells: E. coli BL21 (DE3)
T1 sequence (P07814 1007-1512 limits assumed): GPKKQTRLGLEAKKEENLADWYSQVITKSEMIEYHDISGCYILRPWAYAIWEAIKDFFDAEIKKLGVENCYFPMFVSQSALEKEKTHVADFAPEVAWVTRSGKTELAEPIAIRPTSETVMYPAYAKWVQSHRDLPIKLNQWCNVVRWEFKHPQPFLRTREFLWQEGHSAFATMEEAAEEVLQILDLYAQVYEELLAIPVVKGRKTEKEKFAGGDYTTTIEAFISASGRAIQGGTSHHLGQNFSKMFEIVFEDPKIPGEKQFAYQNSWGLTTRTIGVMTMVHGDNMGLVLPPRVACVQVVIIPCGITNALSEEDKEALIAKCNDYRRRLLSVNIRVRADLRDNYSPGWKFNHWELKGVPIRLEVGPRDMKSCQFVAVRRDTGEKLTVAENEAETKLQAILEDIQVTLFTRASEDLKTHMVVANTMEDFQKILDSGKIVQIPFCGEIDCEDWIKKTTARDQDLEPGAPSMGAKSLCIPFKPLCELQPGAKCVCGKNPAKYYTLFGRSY
Procedure, shortened: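 Biotinylated N-His-tagged human ProRS (20 nM) from E. coli, with Tris-Cl pH 7.5, 2 mM DTT, 5 mM ATP, MgCl2, bovine tRNA; compounds (10 μM to 0.5 nM) preincubated 15 min on ice. Started with proline (3.96 μM unlabeled, 1.04 μM labeled), 10 min at 37 °C, TCA-precipitated and scintillation-counted; IC50 from 4-parameter fit.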

[2] = cited from earlier work
[3] = in vivo; cited from earlier work
[4] = human ProRS 20 nM, 10 min at 37° C., read-out: EPRS IC50

SMILES | GSH adduct formation (Rat hepatocytes) | IC50 [1, 4] [nM] | IC50 [1] [nM] | toxicity in humans [2] | anti-fibrotic properties [3]
Cl.O=c1c2c(-c3cccc(F)c3)cccc2ncn1C[C@@H](O)C[C@H]1NCCC[C@@H]1O [Example 49] | Negative |  |  |  | 
Cc1cc2ncn(C[C@@H](O)C[C@H]3NCCC[C@@H]3O)c(=O)c2cc1Cl.Cl [Example 31, 6-Chloro-3-{(S)-2-hydroxy-3-[(2R,3S)-3-hydroxypiperidin-2-yl]propyl}-7-methylquinazolin-4(3H)-one hydrochloride] | Negative (detected by mass only) |  | 17 |  | 
CCc1cc(Br)cc2c(=O)n(C[C@@H](O)C[C@H]3NCCC[C@@H]3O)cnc12.Cl [Example 48, 6-Bromo-8-ethyl-3-{(S)-2-hydroxy-3-[(2R,3S)-3-hydroxypiperidin-2-yl]propyl}quinazolin-4(3H)-one hydrochloride] | Negative | 83 |  |  | 
Cc1cc2ncn(C[C@@H](O)C[C@H]3NCCC[C@@H]3O)c(=O)c2cc1F.Cl [Example 32, 6-Fluoro-3-{(S)-2-hydroxy-3-[(2R,3S)-3-hydroxypiperidin-2-yl]propyl}-7-methylquinazolin-4(3H)-one hydrochloride] | Negative | 55 |  |  | 
COc1cc2ncn(C[C@@H](O)C[C@H]3NCCC[C@@H]3O)c(=O)c2cc1Cl.Cl [Example 33, 6-Chloro-3-{(S)-2-hydroxy-3-[(2R,3S)-3-hydroxypiperidin-2-yl]propyl}-7-methoxyquinazolin-4(3H)-one hydrochloride] | Negative | 116 |  |  | 
O=C(CC1NCCCC1O)Cn1cnc2cc(Br)c(Cl)cc2c1=O (stereo not drawn) [Halofuginone, 7-bromo-6-chloro-3-[3-(3-hydroxy-2-piperidinyl)-2-oxopropyl]-4(3H)-quinazolinone] |  |  |  | nausea, vomiting, and fatigue, and possibly bleeding complications | anti-fibrotic properties in vivo
Cc1cc(-c2ccn(C)n2)cc2c(=O)n(C[C@@H](O)C[C@H]3NCCC[C@@H]3O)cnc12 [Example 64, 3-{(S)-2-hydroxy-3-[(2R,3S)-3-hydroxypiperidin-2-yl]propyl}-8-methyl-6-(1-methyl-1H-pyrazol-3-yl)quinazolin-4(3H)-one hydrochloride] |  | 30 |  |  | 

Continued, in another order:

GSH adduct formation (Rat hepatocytes) | IC50 [1, 4] [nM] | SMILES | IC50 [1] [nM] | toxicity in humans [2] | anti-fibrotic properties [3]
Negative | 19 | Cc1cc(Cl)cc2c(=O)n(C[C@@H](O)C[C@H]3NCCC[C@@H]3O)cnc12.Cl [Example 30, 6-Chloro-3-{(S)-2-hydroxy-3-[(2R,3S)-3-hydroxypiperidin-2-yl]propyl}-8-methylquinazolin-4(3H)-one hydrochloride] |  |  | 
Negative | 4 | Cc1cc(Br)cc2c(=O)n(CC(=O)C[C@H]3NCCC[C@@H]3O)cnc12.Cl [Example 3, 6-Bromo-3-{3-[(2R,3S)-3-hydroxypiperidin-2-yl]-2-oxopropyl}-8-methylquinazolin-4(3H)-one hydrochloride] |  |  | 
Negative | 302 | Cl.O=c1c2c(F)cccc2ncn1C[C@@H](O)C[C@H]1NCCC[C@@H]1O [Example 40, 5-Fluoro-3-{(S)-2-hydroxy-3-[(2R,3S)-3-hydroxypiperidin-2-yl]propyl}quinazolin-4(3H)-one hydrochloride] |  |  | 
